Data from patent publication US7893256B2, “Azabicycloalkane compounds” (Theravance, Inc., priority 2003, dated 2011).
pKi: −log10 of the molar value.

How the values were obtained:
hM2 receptor [1] = target: T1, hM2 receptor (Homo sapiens, UniProt P08172); experiment: Blockade of agonist-mediated [35S]GTPγS binding (Assay Test Procedure D, B); type: biochemical; conditions: CHO-K1 cells expressing the hM2 receptor; read-out: Ki value for blockade of oxotremorine-stimulated [35S]GTPγS binding
T1 construct: expressed in transfected cells; host or cells: CHO-K1 cells
T1 sequence (P08172 1-466): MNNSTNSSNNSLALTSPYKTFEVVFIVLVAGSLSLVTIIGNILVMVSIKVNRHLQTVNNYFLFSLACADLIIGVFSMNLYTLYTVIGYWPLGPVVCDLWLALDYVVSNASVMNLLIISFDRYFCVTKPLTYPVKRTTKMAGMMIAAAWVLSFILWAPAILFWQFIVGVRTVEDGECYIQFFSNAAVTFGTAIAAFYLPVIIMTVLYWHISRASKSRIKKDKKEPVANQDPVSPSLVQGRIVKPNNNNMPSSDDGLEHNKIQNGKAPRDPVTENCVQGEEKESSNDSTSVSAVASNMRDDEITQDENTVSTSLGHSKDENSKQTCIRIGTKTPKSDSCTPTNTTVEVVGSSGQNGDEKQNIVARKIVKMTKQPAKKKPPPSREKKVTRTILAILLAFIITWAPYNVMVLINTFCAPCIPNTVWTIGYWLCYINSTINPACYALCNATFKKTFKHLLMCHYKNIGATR
Experimental: In a second functional assay, the functional potency of test compounds was determined by measuring the ability of the compounds to block oxotremorine-stimulated [^35S]GTPγS binding in CHO-K1 cells expressing the hM2 receptor.
At the time of use, frozen membranes were thawed and then diluted in assay buffer with a final target tissue concentration of 5-10 μg protein per well. The membranes were briefly homogenized using a Polytron PT-2100 tissue disrupter and then added to the assay plates.
The EC90 value (effective concentration for 90% maximal response) for stimulation of [^35S]GTPγS binding by the agonist oxotremorine was, determined in each experiment.
To determine the ability of a test compound to inhibit oxotremorine-stimulated [^35S]GTPγS binding, the following was added to each well of 96 well plates: […] of assay buffer with [^35S]GTPγS (0.4 nM), 25 μL of oxotremorine (EC90) and GDP (3 uM), 25 μL of diluted test compound and 25 μL CHO cell membranes expressing the hM2 receptor. […] Microscint-20 scintillation liquid (50 μL) was added to each well, and each plate was sealed and radioactivity counted on a Topcounter (PerkinElmer). Data were analyzed by nonlinear regression analysis with the GraphPad Prism Software package (GraphPad Software, Inc., San Diego, Calif.) using the non-linear regression, one-site competition equation. […]

hM2 receptor [2] = target: T1, hM2 receptor; experiment: Blockade of agonist-mediated inhibition of cAMP accumulation (Assay Test Procedure D, A); type: cell-based; conditions: CHO-K1 cells expressing the hM2 receptor; read-out: Ki value for blockade of oxotremorine-inhibition of forskolin-mediated cAMP accumulation
Experimental: In this assay, the functional potency of a test compound was determined by measuring the ability of the test compound to block oxotremorine-inhibition of forskolin-mediated cAMP accumulation in CHO-K1 cells expressing the hM2 receptor. cAMP assays were performed in a radioimmunoassay format using the Flashplate Adenylyl Cyclase Activation Assay System with ^125I-cAMP (NEN SMP004B, PerkinElmer Life Sciences Inc., Boston, Mass.), according to the manufacturer's instructions. Cells were rinsed once with dPBS and lifted with Trypsin-EDTA solution (0.05% trypsin/0.53 mM EDTA) as described in the Cell Culture and Membrane Preparation section above. The detached cells were washed twice by centrifugation at 650×g for five minutes in 50 mL dPBS. The cell pellet was then re-suspended in 10 mL dPBS, and the cells were counted with a Coulter Z1 Dual Particle Counter (Beckman Coulter, Fullerton, Calif.). […]
Reactions were incubated for 10 minutes at 37° C. and stopped by addition of 100 μL ice-cold detection buffer. Plates were sealed, incubated overnight at room temperature and counted the next morning on a PerkinElmer TopCount liquid scintillation counter (PerkinElmer Inc., Wellesley, Mass.). The amount of cAMP produced (pmol/well) was calculated based on the counts observed for the samples and cAMP standards, as described in the manufacturer's user manual. […]

## C[N+]1(CCCCCCCCCNC[C@H](O)c2ccc(O)c3[nH]c(=O)ccc23)C2CC(OC(=O)C(O)(c3cccs3)c3cccs3)CC1C1OC12.C[N+]1(CCCCCCCCCNC[C@H](O)c2ccc(O)c3[nH]c(=O)ccc23)C2CC(OC(=O)C(O)(c3cccs3)c3cccs3)CC1C1OC12.O=C([O-])C(F)(F)F.O=C([O-])C(F)(F)F (stereo partly drawn) [Example 1, 7-(2-Hydroxy-2,2-dithiophen-2-ylacetoxy)-9-{9-[(R)-2-hydroxy-2-(8-hydroxy-2-oxo-1,2-dihydroquinolin-5-yl)ethylamino]nonyl}-9-methyl-3-oxa-9-azonia-tricyclo[3.3.1.0^2,4]nonane Ditrifluoroacetate]
hM2 receptor [1]
  pKi: > 7.30
hM2 receptor [2]
  pKi: > 7.30
